Test results taken from patent US10118943B2, “Compounds and methods for inhibiting cell death” (Ramot at Tel-Aviv University Ltd., priority 2012, dated 2018).

Legend:
[1] = test system: PC12 cells; conditions: ZnCl2 400 μM, increasing concentrations of peptide
[2] = test system: ADNP+/− mice; experiment: Object recognition test in ADNP-deficient mice; assay type: in vivo, mouse; conditions: intranasal, twice a day, 1 month, ADNP+/− male mice
Excerpt: All procedures involving animals were approved by the Animal Care and Use Committee of Tel Aviv University and the National Institutes of Health (Bethesda, Md.). ADNP heterozygous mice, a model for cognitive impairments (Vulih-Shultzman et al., 2007, J. Pharmacol. Exp. Ther. 323:438-449), were housed in a 12-h light/12-h dark cycle facility, and free access to rodent chow and water was available.
SKIP (SEQ ID NO:6) treatment included daily intranasal administrations over a 1 month period to 5-month-old male mice (2 μg/5 μl/mouse/day). For intranasal administration, the peptide was dissolved in a vehicle solution, in which each milliliter included 7.5 mg of NaCl, 1.7 mg of citric acid monohydrate, 3 mg of disodium phosphate dihydrate, and 0.2 mg of benzalkonium chloride solution (50%). SKIP (SEQ ID NO:6) or vehicle solution (DD) was administered to mice hand-held in a semisupine position with nostrils facing the investigator. A pipette tip was used to administer 5 μl/each nostril. The mouse was handheld until the solution was totally absorbed (˜10 s). Nasal SKIP (SEQ ID NO:6) application was performed daily, twice a day, for 1 month (5 days a week). After 1 month, SKIP (SEQ ID NO:6) was applied 2 h before the behavioral tests (described below).
The test includes 2 consecutive days of habituation (five minutes per day) and the experimental day which consists of the three phases. The test was conducted two hours after the daily intranasal SKIP (SEQ ID NO:6). During the first phase (Phase 1, habituation phase), the open field apparatus (arena of 50×50 cm) contained two identical objects (samples) and a mouse was placed in the apparatus facing the wall and allowed to freely explore the objects. At the end of the 5-min session of Phase 1, the mouse was put back into its home cage for 3 hours. […] The time spent sniffing/touching each object was measured. The data was analyzed using the following formula: D1=b−a, when ‘a’ designated the time of exploration of the familiar object and ‘b’ designated the time of exploration of the novel object. […]

Sequence: NAPVSKIPQ (synthetic novel peptide core sequence SKIP derived from hybrid microtubule end-binding protein 3 (EB3)- binding microtubule plus-end tracking proteins (+TIPs) and activity-dependent neurotrophic factor (ADNF) active core site (NAP))
- protection against zinc-induced cell death [1]: protected by the addition of SKIP, over a wide range of concentrations
- object recognition, Phase 2 short retention (discrimination index D1) [2]: improved the memory
